Marks after values point to notes of the source that are not given here.
How the values were obtained:
[1] = test system: L3.6pl human pancreatic cancer cells; assay: Therapy of established L3.6pl human pancreatic carcinoma tumors growing in the pancreas of athymic nude mice (tumor weight); type: in vivo; settings: for Tumor weight (g) Median: pancreatic tumor, AEE788 50 mg/kg oral 3x/week, STI571 50 mg/kg oral daily, gemcitabine 50 mg/kg i.p. twice weekly, 4 weeks, killed day 49, n=10
From the text: Animals and Orthotopic Implantation of Tumor Cells. Male athymic nude mice (NCI-nu) are purchased from the Animal Production Area of the National Cancer Institute Frederick Cancer Research and Development Center (Frederick, Md.). The mice are housed and maintained under specific pathogen-free conditions. The mice are used when they are 8 to 12 weeks old. To produce pancreatic tumors, L3.6pl cells are harvested from subconfluent cultures by a brief exposure to 0.25% trypsin and 0.02% EDTA. Trypsinization is stopped with medium containing 10% FBS, and the cells are washed once in serum-free medium and resuspended in Hanks' balanced salt solution (HBSS). Only suspensions consisting of single cells with greater than 90% viability are used for injection into the pancreas of nude mice as described previously (Hwang et al. in Clin Cancer Res 2003; 9:6534-44). Treatment of Established Human Pancreatic Carcinoma Tumors Growing in the Pancreas of Athymic Nude Mice. Twenty-one days after the intra-pancreatic injection of 0.5×10^6 viable L3.6pl cells in 50 μl HBSS, the pancreatic tumors reach the size of 5-6-mm. […] All mice are treated for 4 weeks and killed on day 49 of the experiment. Necropsy Procedures and Histological Studies. […] Tumors growing in the pancreas are excised and weighed. For immunohistochemical staining procedures, one part of the tumor tissue is fixed in formalin and embedded in paraffin and the other is embedded in OCT compound (Miles, Inc., Elkhart, Ind.), rapidly frozen in liquid nitrogen, and stored at −70° C. Statistical Analysis. Body weight, tumor weight, PCNA-positive cells, mean vessel density (CD31/PECAM-1), and TUNEL-positive cells are compared using the Mann-Whitney U test. Survival analysis is computed by the Kaplan-Meier method and compared by the Log rank test.

EGFR [2] = molecular target: T1, EGFR (Homo sapiens, UniProt P00533); assay: IHC analysis of phosphorylated EGFR in L3.6pl pancreatic tumors; type: in vivo; settings: IHC of pancreatic tumors from treated mice
T1 construct: Paraffin-embedded pancreatic tumors of mice from all treatment groups are immunostained; from tissue; host or cells: L3.6pl orthotopic pancreatic tumours grown in nude mice
T1 sequence (P00533 25-1210): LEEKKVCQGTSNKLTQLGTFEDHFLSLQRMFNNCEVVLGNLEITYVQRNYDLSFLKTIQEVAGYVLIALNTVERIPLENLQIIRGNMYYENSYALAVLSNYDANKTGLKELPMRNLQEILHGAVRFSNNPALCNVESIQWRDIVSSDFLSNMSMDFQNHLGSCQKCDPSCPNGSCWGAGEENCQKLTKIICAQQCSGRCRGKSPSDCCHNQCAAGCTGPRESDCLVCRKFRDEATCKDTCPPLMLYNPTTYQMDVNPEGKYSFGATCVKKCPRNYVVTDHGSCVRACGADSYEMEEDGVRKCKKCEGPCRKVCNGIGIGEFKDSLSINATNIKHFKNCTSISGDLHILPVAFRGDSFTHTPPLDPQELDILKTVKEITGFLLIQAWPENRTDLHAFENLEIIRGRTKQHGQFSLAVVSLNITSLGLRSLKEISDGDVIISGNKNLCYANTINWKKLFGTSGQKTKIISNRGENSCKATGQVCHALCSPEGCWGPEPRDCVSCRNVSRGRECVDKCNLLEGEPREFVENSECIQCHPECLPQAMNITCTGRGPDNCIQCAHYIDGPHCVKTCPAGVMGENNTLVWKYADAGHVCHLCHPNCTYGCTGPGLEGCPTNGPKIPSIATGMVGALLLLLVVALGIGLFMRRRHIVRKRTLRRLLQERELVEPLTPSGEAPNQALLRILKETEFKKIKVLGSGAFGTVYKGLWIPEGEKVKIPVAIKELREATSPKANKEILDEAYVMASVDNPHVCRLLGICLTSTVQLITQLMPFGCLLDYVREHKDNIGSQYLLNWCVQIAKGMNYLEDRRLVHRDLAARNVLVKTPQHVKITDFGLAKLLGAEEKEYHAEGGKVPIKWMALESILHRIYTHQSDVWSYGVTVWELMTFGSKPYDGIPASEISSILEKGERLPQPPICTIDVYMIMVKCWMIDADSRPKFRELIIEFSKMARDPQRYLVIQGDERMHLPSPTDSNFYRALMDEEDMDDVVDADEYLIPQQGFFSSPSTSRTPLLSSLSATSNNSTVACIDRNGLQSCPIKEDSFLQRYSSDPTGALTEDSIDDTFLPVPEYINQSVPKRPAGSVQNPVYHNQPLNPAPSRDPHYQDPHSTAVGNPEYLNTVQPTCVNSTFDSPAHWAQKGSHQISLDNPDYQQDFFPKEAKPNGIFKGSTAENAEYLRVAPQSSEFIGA
From the text: (§1) Immunohistochemical (IHC) Analysis to Detect EGF, VEGF, PDGF-BB, EGFR, VEGFR, PDGFRβ, pEGFR, pVEGFR, pPDGF-R in Pancreatic Tumors. Paraffin-embedded pancreatic tumors of mice from all treatment groups are immunostained to evaluate the expression of EGF, VEGF, PDGF-BB, EGFR, VEGFR, PDGFRβ, phosphorylated (p)EGFR, pVEGFR, and pPDGFRβ. The sections are deparaffinized in xylene, dehydrated with alcohol and rehydrated in PBS. Endogenous peroxidase is blocked with 3% hydrogen peroxide in PBS. Samples are exposed to protein block (5% normal horse serum, 1% normal goat serum in PBS) and incubated overnight at 4° C. with each primary antibody at the appropriate dilution. […] Slides are counterstained with Gill's #3 hematoxylin. Sections stained for immunoperoxidase or hematoxylin and eosin are examined in a microscope equipped with a three-chip-charged coupled device (CCD) color video camera. Digital images are captured using Optimas Image Analysis software (Media Cybernetics, Md.).

VEGFR [3] = assay: IHC analysis of phosphorylated VEGFR in L3.6pl pancreatic tumors; type: in vivo, human; settings: IHC of pancreatic tumors from treated mice
From the text: as §1

EGFR [4] = molecular target: T2, EGFR (Mus musculus, UniProt Q01279); assay: Double immunofluorescence CD31/pEGFR on tumor-associated endothelial cells; type: in vivo, nude mice; settings: double immunofluorescence with CD31
T2 construct: Frozen sections of pancreatic tumors are mounted on slides and fixed; from tissue; host or cells: tumour-associated endothelial cells in L3.6pl tumours of nude mice
T2 sequence (Q01279 25-1210): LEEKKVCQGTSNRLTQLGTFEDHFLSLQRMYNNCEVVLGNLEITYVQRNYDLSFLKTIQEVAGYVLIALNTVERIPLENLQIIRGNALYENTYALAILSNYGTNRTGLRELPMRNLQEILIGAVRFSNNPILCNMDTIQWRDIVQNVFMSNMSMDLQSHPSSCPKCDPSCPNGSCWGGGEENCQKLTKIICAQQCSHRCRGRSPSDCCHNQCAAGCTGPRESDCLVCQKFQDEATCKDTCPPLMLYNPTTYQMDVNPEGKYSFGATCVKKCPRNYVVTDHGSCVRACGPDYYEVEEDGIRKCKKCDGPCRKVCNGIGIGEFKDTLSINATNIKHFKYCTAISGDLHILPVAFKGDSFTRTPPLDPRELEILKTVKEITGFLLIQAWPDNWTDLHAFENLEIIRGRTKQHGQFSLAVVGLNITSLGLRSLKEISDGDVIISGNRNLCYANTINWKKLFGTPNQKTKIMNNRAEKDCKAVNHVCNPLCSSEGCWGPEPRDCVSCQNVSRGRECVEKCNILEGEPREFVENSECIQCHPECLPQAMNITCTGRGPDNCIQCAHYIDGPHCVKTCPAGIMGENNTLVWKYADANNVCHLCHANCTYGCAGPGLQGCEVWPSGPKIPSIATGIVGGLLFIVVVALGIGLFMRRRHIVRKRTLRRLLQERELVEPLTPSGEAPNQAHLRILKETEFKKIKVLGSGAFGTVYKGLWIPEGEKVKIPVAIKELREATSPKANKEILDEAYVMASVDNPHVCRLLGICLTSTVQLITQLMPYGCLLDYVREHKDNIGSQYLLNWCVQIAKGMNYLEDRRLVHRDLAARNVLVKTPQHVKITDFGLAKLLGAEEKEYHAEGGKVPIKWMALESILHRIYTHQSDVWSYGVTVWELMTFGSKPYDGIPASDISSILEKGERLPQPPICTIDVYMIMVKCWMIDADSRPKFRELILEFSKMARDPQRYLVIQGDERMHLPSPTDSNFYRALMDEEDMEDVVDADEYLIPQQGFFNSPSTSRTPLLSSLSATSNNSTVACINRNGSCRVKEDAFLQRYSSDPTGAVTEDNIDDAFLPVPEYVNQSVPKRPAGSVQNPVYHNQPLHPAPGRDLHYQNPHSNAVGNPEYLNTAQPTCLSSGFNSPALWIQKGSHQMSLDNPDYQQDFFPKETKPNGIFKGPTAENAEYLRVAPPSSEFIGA
Description: (§2) Double Immunofluorescence Staining for CD31/PECAM-1 and EGFR, pEGFR, VEGFR, pVEGFR, PDGFRβ, pPDGFRβ, Pericytes (desmin-positive cells), and TUNEL. Frozen sections of pancreatic tumors are mounted on slides and fixed. Immunofluorescence for CD31 is performed using Alexa594 conjugated secondary antibody, and samples are again blocked briefly in a blocking solution (5% normal horse serum and 1% normal goat serum in PBS) as described above and incubated with antibody against human EGFR, pEGFR, VEGFR, pVEGFR, PDGFRβ, pPDGFRβ, or desmin at 4° C. overnight. After washes and blocking with blocking solution, samples are incubated with Alexa488 conjugated secondary antibody. Endothelial cells are identified by red fluorescence, and EGF-R, pEGFR, VEGFR, pVEGFR, PDGFRβ, pPDGFRβ and desmin positive cells (pericytes) are identified by green fluorescence. The presence of growth factor receptors and phosphorylated receptors on endothelial cells are detected by colocalization of red and green fluorescence, which appeared yellow.

VEGFR [5] = molecular target: T3, VEGFR (Mus musculus, UniProt P35918); assay: Double immunofluorescence CD31/pVEGFR on tumor-associated endothelial cells; type: in vivo, nude mice; settings: double immunofluorescence with CD31
T3 construct: Frozen sections of pancreatic tumors are mounted on slides and fixed; from tissue; host or cells: tumour-associated endothelial cells in L3.6pl tumours of nude mice
T3 sequence (P35918 20-1345): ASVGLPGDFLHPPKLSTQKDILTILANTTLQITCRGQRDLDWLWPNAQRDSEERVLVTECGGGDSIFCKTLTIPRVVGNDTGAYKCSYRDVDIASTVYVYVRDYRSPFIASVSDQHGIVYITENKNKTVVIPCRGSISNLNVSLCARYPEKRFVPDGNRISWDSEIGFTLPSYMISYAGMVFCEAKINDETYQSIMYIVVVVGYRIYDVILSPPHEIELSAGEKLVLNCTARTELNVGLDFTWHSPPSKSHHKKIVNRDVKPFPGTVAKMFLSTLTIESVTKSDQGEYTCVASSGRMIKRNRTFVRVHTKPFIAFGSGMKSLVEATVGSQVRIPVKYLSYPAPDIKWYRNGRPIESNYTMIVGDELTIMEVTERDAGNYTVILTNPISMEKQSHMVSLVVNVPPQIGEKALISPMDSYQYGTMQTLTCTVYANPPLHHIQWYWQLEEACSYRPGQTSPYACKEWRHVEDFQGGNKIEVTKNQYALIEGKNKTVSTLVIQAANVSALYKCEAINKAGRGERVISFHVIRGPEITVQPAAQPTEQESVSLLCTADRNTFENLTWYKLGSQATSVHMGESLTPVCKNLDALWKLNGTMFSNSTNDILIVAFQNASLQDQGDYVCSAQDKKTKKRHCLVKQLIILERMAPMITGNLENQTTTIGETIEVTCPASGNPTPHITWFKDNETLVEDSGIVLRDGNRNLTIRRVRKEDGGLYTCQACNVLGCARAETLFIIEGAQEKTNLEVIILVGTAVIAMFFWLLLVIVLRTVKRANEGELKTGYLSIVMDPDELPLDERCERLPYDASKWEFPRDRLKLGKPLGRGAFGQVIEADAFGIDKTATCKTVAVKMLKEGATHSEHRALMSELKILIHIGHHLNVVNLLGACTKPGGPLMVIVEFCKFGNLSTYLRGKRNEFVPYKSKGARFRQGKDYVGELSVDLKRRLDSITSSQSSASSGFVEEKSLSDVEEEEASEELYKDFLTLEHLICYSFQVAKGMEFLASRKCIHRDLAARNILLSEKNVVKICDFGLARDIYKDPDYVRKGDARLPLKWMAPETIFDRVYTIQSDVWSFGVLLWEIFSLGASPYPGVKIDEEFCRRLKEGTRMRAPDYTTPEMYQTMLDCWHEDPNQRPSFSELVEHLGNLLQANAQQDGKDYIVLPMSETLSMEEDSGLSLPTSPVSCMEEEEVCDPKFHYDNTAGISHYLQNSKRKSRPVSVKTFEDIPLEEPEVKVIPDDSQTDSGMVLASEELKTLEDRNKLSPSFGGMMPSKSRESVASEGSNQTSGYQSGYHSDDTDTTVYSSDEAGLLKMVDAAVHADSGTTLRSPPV
Description: as §2

[6] = test system: L3.6pl human pancreatic cancer cells; assay: Cell proliferation (PCNA) IHC in L3.6pl tumors; type: in vivo; settings: Median ± S.D., positive cells in 10 random 0.159-mm^2 fields at ×100
Description: IHC Determination of Proliferating Cell Nuclear Antigen (PCNA), CD31/PECAM-1 (Endothelial Cells) and TUNEL (Apoptosis). Paraffin-embedded tissues are used for IHC identification of proliferating cell nuclear antigen (PCNA). Frozen tissues used for identification of CD31/PECAM-1 are sectioned (8-10 μm), mounted on positively charged slides, and air-dried for 30 min. Frozen sections are fixed in cold acetone (5 min), in acetone/chloroform (v/v; 5 min), and again in acetone (5 min), and washed with PBS. IHC procedures are performed as described previously (Hwang et al. in Clin Cancer Res 2003; 9:6534-44). […] Statistical Analysis. Body weight, tumor weight, PCNA-positive cells, mean vessel density (CD31/PECAM-1), and TUNEL-positive cells are compared using the Mann-Whitney U test. Survival analysis is computed by the Kaplan-Meier method and compared by the Log rank test.

[7] = listed as {6-[4-(4-ethyl-piperazin-1-ylmethyl)-phenyl]-7H-pyrrolo[2,3-d]pyrimidin-4-yl}-(1)

Row | SMILES | Tumor weight (g) Median [1] | phosphorylation of EGFR in tumors (EGFR [2]) | phosphorylation of EGFR in tumors (EGFR [2]; [7]) | phosphorylation of VEGFR in tumors (VEGFR [3]) | phosphorylation of VEGFR in tumors (VEGFR [3]; [7]) | phosphorylation of EGFR on tumor-associated endothelial cells (EGFR [4]) | phosphorylation of VEGFR on tumor-associated endothelial cells (VEGFR [5]) | Tumor cells PCNA (number of PCNA-positive cells) [6] | effect on tumor growth (in words) ([1]; L3.6pl implanted in the pancreas of nude mice, each drug 50 mg/kg) | Tumor cells PCNA (number of PCNA-positive cells) ([6]; listed as gemcitabine)
1 | CCN1CCN(Cc2ccc(-c3cc4c(N[C@H](C)c5ccccc5)ncnc4[nH]3)cc2)CC1 [AEE788] | 0.33 g | significantly reduced | decreases phosphorylation | significantly reduced | decreases phosphorylation | diminished | diminished | 233 ± 54^e | – | –
2 | Nc1ccn([C@@H]2O[C@H](CO)[C@@H](O)C2(F)F)c(=O)n1 [Gemcitabine] | 0.78 g | – | – | – | – | – | – | 305 ± 71 | does not inhibit tumor growth | decreases the number of dividing PCNA-positive cells
